Test results reported in patent publication US12005033B2, “Compositions comprising mixtures of semifluorinated alkanes” (Novaliq GmbH, priority 2012, dated 2024).

Experiment: Liquid droplet spread area on a glass surface
Assay type: physicochemical
Details: 2 minutes after application of 50 μL of liquid to a glass surface

Row | SMILES | Liquid covered surface area [cm^2]
1 | CCCCCCCCC(F)(F)C(F)(F)C(F)(F)C(F)(F)C(F)(F)C(F)(F)F [F6H8, F(CF2)6(CH2)8H] | 12.89 ± 0.94
2 | CCCCCCCCC [Nonane, reference compound] | 5.20 ± 0.18
3 | FC1(F)C(F)(F)C(F)(F)C2(F)C(F)(F)C(F)(F)C(F)(F)C(F)(F)C2(F)C1(F)F (stereo not shown) [Perfluorodecalin, reference compound] | 1.45 ± 0.02
4 | CCCCCC(F)(F)C(F)(F)C(F)(F)C(F)(F)F [F4H5, F(CF2)4(CH2)5H] | 7.54 ± 0.33
